Experiments:
PI 3-kinase gamma [1] = target: T1, PI 3-kinase gamma (Homo sapiens, UniProt P48736); experiment: TR-FRET Adapta assay, assay E; format: biochemical; settings: read-out: Assay E PI3Kγ IC50
mTOR = mTOR (Homo sapiens, UniProt P42345); experiment: Lanthascreen kinase binding assay, assay G; settings: read-out: Assay G mTOR IC50
Procedure: Lanthascreen™ Kinase Binding Assay for mTOR (G)
Binding of an inhibitor to the kinase competes for binding with the tracer, resulting in a loss of FRET.
50 nL of compound dilutions were dispensed onto white 384-well small volume polystyrene plate.

PI 3-kinase alpha [2] = target: T2, PI 3-kinase alpha (Homo sapiens, UniProt P42336); experiment: Kinase Glo Luminescent Kinase Assay (Kglo), assay A; format: biochemical; settings: read-out: Assay A PI3Kα IC50
Target sequence in this assay (P42336 whole entry): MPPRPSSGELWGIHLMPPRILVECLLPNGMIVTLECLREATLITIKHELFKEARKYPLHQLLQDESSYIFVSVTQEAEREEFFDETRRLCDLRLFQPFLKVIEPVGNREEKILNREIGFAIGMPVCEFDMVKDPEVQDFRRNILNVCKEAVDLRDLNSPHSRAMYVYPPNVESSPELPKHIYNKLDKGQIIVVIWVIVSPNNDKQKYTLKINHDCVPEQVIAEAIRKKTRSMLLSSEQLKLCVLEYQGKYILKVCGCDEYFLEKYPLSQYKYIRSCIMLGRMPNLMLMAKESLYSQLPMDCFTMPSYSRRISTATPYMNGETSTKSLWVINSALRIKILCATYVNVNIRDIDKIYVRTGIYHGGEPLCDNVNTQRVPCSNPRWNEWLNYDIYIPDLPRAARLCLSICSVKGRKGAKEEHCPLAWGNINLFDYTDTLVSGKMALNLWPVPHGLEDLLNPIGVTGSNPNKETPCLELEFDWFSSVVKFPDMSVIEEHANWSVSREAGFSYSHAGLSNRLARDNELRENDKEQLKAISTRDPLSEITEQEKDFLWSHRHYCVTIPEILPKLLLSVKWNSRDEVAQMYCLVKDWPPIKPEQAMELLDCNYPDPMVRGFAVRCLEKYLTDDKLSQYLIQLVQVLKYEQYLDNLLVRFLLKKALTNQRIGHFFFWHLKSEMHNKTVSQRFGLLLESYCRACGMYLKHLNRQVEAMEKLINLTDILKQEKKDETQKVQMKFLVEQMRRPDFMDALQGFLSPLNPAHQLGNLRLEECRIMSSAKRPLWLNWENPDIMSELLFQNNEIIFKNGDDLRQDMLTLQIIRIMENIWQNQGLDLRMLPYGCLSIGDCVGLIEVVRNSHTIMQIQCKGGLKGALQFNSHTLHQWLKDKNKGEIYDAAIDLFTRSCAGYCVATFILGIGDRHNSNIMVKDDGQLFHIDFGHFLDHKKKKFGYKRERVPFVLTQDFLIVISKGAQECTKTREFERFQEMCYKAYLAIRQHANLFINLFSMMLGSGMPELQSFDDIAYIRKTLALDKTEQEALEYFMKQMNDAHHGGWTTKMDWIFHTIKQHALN

PI 4-kinase beta = PI 4-kinase beta (Homo sapiens, UniProt Q9UBF8); experiment: Kinase Glo Luminescent Kinase Assay (Kglo), assay D; format: biochemical; settings: read-out: Assay D PI4Kβ IC50
Vps34 = Vps34 (Homo sapiens, UniProt Q8NEB9); experiment: Kinase Glo Luminescent Kinase Assay (Kglo), assay C; format: biochemical; settings: read-out: Assay C VPS34 IC50
Procedure: Kinase Glo Luminescent Kinase Assay (Kglo) for Pb 3-Kinase Alpha (A), Pb 3-Kinase Beta (B), Vps34 (C), Pb 4-Kinase Beta (D)
The Kinase Glo Luminescent Kinase Assay (Promega, Madison/Wis., USA) is a homogeneous HTS method of measuring kinase activity by quantifying the amount of ATP remaining in solution following a kinase reaction.
L-α-phosphatidylinositol (PI), provided as 10 mg/ml solution in methanol, was transferred into a glass tube and dried under a nitrogen beam. It was then resuspended in 3% OctylGlucoside (1-0-n-octyl-beta-D-glucopyranoside) by vortexing and stored at 4° C. 5 μL of a mix of PI/OctylGlucoside with the PI 3-kinase alpha and PI 3-kinase beta subtypes, or Vps34 or PI 4-kinase beta were added. Kinase reactions were started by the addition of 5 μl of an ATP-mix containing in a final volume 10 μL 10 mM TRIS-HCl pH 7.5, 3 mM MgCl2, 50 mM NaCl, 0.05% CHAPS, 1 mM DTT and 1 μM ATP at room temperature.
All fits were performed with the program XLfit4 (ID Business Solutions, Guildford, UK).

PI 3-kinase gamma [3] = target: T1, PI 3-kinase gamma; experiment: Cellular U937 AKT assay K1 (MSD); format: cell-based; settings: U937 cells, K1 format; read-out: Assay K1 PI3Kγ IC50
PI 3-kinase delta [4] = target: T3, PI 3-kinase delta (Homo sapiens, UniProt O00329); experiment: TR-FRET Adapta assay, assay F; settings: read-out: Assay F PI3Kδ IC50
PI 3-kinase beta [5] = target: T4, PI 3-kinase beta (Homo sapiens, UniProt P42338); experiment: Kinase Glo Luminescent Kinase Assay (Kglo), assay B; format: biochemical; settings: read-out: Assay B PI3Kβ IC50
Target sequence in this assay (P42338 whole entry): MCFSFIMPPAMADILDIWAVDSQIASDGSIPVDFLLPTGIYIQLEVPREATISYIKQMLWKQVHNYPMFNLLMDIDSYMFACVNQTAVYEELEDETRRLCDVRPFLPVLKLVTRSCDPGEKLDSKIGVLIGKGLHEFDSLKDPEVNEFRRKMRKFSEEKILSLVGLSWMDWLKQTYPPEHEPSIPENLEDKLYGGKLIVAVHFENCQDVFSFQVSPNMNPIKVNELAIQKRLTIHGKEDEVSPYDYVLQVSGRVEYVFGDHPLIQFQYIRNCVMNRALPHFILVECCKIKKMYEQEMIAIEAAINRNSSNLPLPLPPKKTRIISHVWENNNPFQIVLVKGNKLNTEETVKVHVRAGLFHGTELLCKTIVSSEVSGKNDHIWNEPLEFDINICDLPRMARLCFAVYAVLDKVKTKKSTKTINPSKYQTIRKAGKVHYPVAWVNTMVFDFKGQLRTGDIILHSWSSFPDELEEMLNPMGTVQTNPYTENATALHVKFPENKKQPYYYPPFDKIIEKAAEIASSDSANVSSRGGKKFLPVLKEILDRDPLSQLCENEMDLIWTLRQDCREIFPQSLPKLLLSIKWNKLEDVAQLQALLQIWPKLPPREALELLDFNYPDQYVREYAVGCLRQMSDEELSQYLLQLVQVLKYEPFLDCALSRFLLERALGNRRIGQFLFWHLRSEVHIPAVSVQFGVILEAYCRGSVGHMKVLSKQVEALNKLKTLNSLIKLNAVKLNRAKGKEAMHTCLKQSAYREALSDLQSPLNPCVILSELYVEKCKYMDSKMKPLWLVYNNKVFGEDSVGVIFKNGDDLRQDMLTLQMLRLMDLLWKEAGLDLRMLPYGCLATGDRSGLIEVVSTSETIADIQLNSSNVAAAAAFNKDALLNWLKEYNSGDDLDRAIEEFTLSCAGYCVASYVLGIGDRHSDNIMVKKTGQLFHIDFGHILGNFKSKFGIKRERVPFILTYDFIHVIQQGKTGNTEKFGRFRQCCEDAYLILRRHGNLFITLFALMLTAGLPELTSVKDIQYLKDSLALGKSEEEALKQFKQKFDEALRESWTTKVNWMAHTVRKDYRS
Target sequence in this assay (P27986 461-568 partner): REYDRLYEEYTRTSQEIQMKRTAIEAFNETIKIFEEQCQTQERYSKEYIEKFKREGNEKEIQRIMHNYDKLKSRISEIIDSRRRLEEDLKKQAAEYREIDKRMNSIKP

[6] = Microsomal clearance assay (M); settings: intrinsic clearance in rat liver microsomes
Procedure: The experiments were performed in 96-well glass plates at 37° C. on an automated Tecan EVO platform. Test compounds at a concentration of 10 mM in pure DMSO were diluted 1:1000 in water to 10 μM. […] Reactions were initiated by the addition of 150 μL of a cofactor solution containing 2 mM NADPH.

PI 3-kinase alpha [7] = target: T2, PI 3-kinase alpha; experiment: Cellular assay H1, p-Akt (S473) in Rat-1 cells, Surefire format; format: cell-based; settings: non-asterisked data: version H1 (Surefire format), Rat-1 cells; read-out: Assay H PI3Kα IC50
Target sequence in this assay (P42336 whole entry): as the sequence (P42336 whole entry) above
Target sequence in this assay (Q63787 whole entry partner): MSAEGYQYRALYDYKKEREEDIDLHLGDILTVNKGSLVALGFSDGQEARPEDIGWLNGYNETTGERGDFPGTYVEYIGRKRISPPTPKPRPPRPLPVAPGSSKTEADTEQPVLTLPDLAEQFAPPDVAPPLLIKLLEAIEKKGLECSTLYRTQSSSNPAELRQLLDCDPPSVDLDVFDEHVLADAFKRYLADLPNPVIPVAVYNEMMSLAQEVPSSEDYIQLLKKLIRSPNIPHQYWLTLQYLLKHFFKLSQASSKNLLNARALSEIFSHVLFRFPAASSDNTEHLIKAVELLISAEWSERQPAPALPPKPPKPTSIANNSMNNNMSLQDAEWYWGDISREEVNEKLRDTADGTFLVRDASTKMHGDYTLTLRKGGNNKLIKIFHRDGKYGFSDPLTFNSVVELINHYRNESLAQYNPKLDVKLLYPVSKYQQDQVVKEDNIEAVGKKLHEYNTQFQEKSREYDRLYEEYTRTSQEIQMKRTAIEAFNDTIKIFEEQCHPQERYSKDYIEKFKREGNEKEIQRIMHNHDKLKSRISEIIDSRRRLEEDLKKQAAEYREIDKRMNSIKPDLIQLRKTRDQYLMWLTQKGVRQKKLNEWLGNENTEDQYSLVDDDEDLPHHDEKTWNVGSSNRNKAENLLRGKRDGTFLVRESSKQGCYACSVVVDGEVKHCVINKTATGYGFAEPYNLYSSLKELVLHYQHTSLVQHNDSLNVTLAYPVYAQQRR

PI 3-kinase beta [8] = target: T4, PI 3-kinase beta; experiment: Cellular assay I1, p-Akt (S473) in Rat-1 cells, Surefire format; format: cell-based; settings: non-asterisked data: version I1 (Surefire format), Rat-1 cells; read-out: Assay I PI3Kβ IC50
Target sequence in this assay (P42338 whole entry): as the sequence (P42338 whole entry) above
Target sequence in this assay (Q63787 whole entry partner): as the sequence (Q63787 whole entry partner) above

PI 3-kinase delta [9] = target: T3, PI 3-kinase delta; experiment: Cellular assay J1, p-Akt (S473) in Rat-1 cells, Surefire format; format: cell-based; settings: non-asterisked data: version J1 (Surefire format), Rat-1 cells; read-out: Assay J PI3Kδ IC50

T1 sequence (P48736 whole entry): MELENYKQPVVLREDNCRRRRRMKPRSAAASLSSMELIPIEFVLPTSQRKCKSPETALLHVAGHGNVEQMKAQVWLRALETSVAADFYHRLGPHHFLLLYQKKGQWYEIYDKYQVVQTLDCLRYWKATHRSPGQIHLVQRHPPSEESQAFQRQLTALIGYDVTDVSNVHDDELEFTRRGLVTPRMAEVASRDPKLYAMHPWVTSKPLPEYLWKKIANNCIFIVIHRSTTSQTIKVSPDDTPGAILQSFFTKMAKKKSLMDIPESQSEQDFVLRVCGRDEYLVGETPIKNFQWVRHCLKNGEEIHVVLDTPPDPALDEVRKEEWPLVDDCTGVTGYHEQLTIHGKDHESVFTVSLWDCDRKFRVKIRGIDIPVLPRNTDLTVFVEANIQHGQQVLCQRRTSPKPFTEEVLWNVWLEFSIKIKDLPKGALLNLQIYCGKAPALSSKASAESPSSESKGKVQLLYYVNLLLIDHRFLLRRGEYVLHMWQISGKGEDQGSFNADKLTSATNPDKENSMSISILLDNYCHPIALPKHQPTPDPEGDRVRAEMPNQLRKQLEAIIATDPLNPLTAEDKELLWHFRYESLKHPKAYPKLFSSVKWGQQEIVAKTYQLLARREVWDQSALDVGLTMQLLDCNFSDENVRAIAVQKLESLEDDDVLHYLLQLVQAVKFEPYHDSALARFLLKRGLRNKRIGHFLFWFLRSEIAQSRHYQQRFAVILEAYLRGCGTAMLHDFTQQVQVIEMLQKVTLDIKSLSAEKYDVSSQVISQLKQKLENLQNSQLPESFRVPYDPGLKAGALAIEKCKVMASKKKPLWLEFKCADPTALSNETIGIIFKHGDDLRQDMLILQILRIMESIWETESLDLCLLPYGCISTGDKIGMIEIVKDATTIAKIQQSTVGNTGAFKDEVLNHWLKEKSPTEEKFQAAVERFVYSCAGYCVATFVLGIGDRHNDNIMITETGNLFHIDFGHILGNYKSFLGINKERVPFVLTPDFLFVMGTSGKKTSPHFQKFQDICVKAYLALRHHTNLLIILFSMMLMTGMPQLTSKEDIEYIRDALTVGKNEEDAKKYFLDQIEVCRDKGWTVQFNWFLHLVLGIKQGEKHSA
Sequence of Vps34 (Q8NEB9 whole entry, species assumed): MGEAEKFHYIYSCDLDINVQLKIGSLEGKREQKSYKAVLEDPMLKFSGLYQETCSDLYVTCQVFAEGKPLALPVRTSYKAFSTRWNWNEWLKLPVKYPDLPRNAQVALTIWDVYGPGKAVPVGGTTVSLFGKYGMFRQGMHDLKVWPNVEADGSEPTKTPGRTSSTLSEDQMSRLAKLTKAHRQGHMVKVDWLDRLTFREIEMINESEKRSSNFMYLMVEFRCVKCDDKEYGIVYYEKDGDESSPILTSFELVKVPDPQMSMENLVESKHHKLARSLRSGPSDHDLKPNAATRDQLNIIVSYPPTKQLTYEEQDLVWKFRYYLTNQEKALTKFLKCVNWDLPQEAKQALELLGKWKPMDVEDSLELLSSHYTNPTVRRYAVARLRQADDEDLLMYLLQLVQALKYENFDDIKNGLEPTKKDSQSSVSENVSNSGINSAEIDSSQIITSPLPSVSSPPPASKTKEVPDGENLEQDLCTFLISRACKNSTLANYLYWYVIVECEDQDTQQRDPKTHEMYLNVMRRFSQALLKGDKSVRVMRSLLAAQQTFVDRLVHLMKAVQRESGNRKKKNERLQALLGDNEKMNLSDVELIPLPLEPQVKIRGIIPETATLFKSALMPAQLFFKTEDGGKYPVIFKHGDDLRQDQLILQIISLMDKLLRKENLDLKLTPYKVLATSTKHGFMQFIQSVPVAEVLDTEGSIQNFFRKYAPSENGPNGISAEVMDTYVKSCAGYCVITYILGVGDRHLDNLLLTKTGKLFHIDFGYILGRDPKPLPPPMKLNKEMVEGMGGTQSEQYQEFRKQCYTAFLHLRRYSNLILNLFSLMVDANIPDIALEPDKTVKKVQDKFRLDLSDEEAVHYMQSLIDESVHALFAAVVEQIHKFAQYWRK

IC50 (PI 3-kinase gamma [1])	IC50 (mTOR)	IC50 (PI 3-kinase alpha [2])	IC50 (PI 4-kinase beta)	IC50 (Vps34)	IC50 (PI 3-kinase gamma [3])	IC50 (PI 3-kinase delta [4])	IC50 (PI 3-kinase beta [5])	Assay M RLM CI(int) [6]	IC50 (PI 3-kinase alpha [7])	IC50 (PI 3-kinase beta [8])	IC50 (PI 3-kinase delta [9])	SMILES
27 nM	4.7 µM	200 nM	1.8 µM	> 10 µM	168 nM	320 nM	790 nM					Cc1ccc(S(=O)(=O)NCCC(C)(O)C(F)(F)F)cc1-c1cnc(N)c(-n2cncn2)n1 (centres unmarked) [Example 127.24]
13 nM	2.35 µM	240 nM	1.55 µM	> 9.55 µM	66 nM	180 nM	2200 nM	152 µL/min/mg				Cc1ccc(S(=O)(=O)NCCC(C)(C)O)cc1-c1cnc(N)c(-c2cc(C3CC3)no2)n1 [Example 78, 3-(5-Amino-6-(3-cyclopropylisoxazol-5-yl)pyrazin-2-yl)-N-(3-hydroxy-3-methylbutyl)-4-methylbenzenesulfonamide]
31 nM	3.3 µM	130 nM	4.4 µM	> 10 µM	66 nM	340 nM	650 nM	493 µL/min/mg				Cc1ccc(S(=O)(=O)NCC2(CO)CCCC2)cc1-c1cnc(N)c(-n2cncn2)n1 [Example 127.25]
40 nM	3.9 µM	270 nM	8.3 µM	> 10 µM	156 nM	500 nM	970 nM					Cc1ccc(S(=O)(=O)NC[C@@](C)(O)C(F)(F)F)cc1-c1cnc(N)c(-n2cncn2)n1 [Example 127.22]
36 nM	3.8 µM	760 nM	> 10 µM	> 10 µM	40 nM	840 nM	1400 nM	92 µL/min/mg				Cc1nc(-c2nc(-c3cc(S(=O)(=O)NCC(C)(C)O)ccc3C)cnc2N)c(C)s1 [Example 40, 3-(5-Amino-6-(2,5-dimethylthiazol-4-yl)pyrazin-2-yl)-N-(2-hydroxy-2-methylpropyl)-4-methylbenzenesulfonamide]
160 nM	> 10 µM	450 nM	8.4 µM	> 10 µM	290 nM	3500 nM	5100 nM					Cc1ccc(S(=O)(=O)NCCF)cc1-c1cnc(N)c(-n2cncn2)n1 [Example 127.28]
160 nM	> 10 µM	380 nM	3.4 µM	> 10 µM	371 nM	> 10000 nM	3200 nM					Cc1ccc(S(=O)(=O)N2CCC(F)(F)C2)cc1-c1cnc(N)c(-n2cncn2)n1 [Example 127.3]
16 nM	> 9.1 µM	490 nM	> 9.1 µM	> 9.1 µM		340 nM	7100 nM	139 µL/min/mg	7600 nM	> 10 µM	6840 nM	Cc1cc(-c2nc(-c3cc(S(=O)(=O)NCCCCCO)ccc3C)cnc2N)ccn1 [Example 129.3, 3-(5-amino-6-(2-methylpyridin-4-yl)pyrazin-2-yl)-N-(5-hydroxypentyl)-4-methylbenzenesulfonamide]
92 nM	8.8 µM	550 nM	> 9.55 µM		276 nM	550 nM	3350 nM	62 µL/min/mg				Cc1noc(-c2nc(-c3cc(S(=O)(=O)NC[C@H]4C[C@@H](O)C4)ccc3C)cnc2N)n1 [Example 96, 3-(5-Amino-6-(3-methyl-1,2,4-oxadiazol-5-yl)pyrazin-2-yl)-N-(((1s,3s)-3-hydroxycyclobutyl)methyl)-4-methylbenzenesulfonamide]
26 nM	6.1 µM	280 nM	3.8 µM	> 10 µM	210 nM	1100 nM	530 nM					Cc1ccc(S(=O)(=O)NC[C@@H](C)O)cc1-c1cnc(N)c(-n2cncn2)n1 [Example 127.13]
124 nM	> 10 µM	240 nM	3.9 µM	> 10 µM	131 nM	640 nM	1800 nM					Cc1ccc(S(=O)(=O)NCCCF)cc1-c1cnc(N)c(-n2cncn2)n1 [Example 127.29]
11 nM	6.04 µM	260 nM	2.67 µM	> 9.1 µM		200 nM	3220 nM	191 µL/min/mg	1680 nM	6.04 µM	790 nM	Cc1ccc(S(=O)(=O)NCCC(C)(C)O)cc1-c1cnc(N)c(-c2cnn(CC(C)C)c2)n1 [Example 119.32]
38 nM	> 10 µM	890 nM	7.4 µM	> 10 µM	392 nM	1100 nM	1200 nM					Cc1ccc(S(=O)(=O)NCC2CCCCO2)cc1-c1cnc(N)c(-n2cncn2)n1 (centres unmarked) [Example 127.17]
10 nM	> 10 µM	90 nM	> 10 µM	> 10 µM		320 nM	520 nM	254 µL/min/mg	480 nM	1.73 µM	690 nM	COc1nc(-c2nc(-c3cc(S(=O)(=O)NCCC(C)(C)O)ccc3C)cnc2N)cs1 [Example 110, 3-(5-Amino-6-(2-methoxythiazol-4-yl)pyrazin-2-yl)-N-(3-hydroxy-3-methylbutyl)-4-methylbenzenesulfonamide]
77 nM	> 10 µM	2600 nM	9 µM	> 10 µM		2500 nM	6300 nM	29 µL/min/mg	> 10000 nM	> 10 µM	4040 nM	Cc1ccc(S(=O)(=O)NCC(C)(C)O)cc1-c1cnc(N)c(-c2cn(C)nn2)n1 [Example 81, 3-(5-Amino-6-(1-methyl-1H-1,2,3-triazol-4-yl)pyrazin-2-yl)-N-(2-hydroxy-2-methylpropyl)-4-methylbenzenesulfonamide]
140 nM	6.7 µM	1800 nM	> 10 µM	> 10 µM	1880 nM	1200 nM	4600 nM					Cc1ccc(S(=O)(=O)NCC(C)(C)N2CCOCC2)cc1-c1cnc(N)c(-n2cncn2)n1 [Example 127.32]
98 nM	3 µM	360 nM	> 10 µM	> 10 µM	320 nM	1200 nM	1900 nM					Cc1ccc(S(=O)(=O)N[C@H]2CCOC2)cc1-c1cnc(N)c(-n2cncn2)n1 [Example 127.21]
23 nM		180 nM	2.9 µM	> 10 µM	82 nM	360 nM	580 nM					Cc1ccc(S(=O)(=O)NC[C@](C)(O)C(F)(F)F)cc1-c1cnc(N)c(-n2cncn2)n1 [Example 127.23]
